Reference: ChEMBL document CHEMBL1146350, “Synthesis of some new bioactive 3-amino-2-mercapto-5,6,7,8-tetrahydro[1]benzothieno[2,3-d]pyrimidin-4(3H)-one derivatives” (2007)
≈ marks a conversion by molar mass, not a printed value. Calls of active or inactive are those of the source. The rule behind the calls is not given here.

Key:
Escherichia coli = test: Antibacterial activity against Escherichia coli ATCC 25922 by disc diffusion method; assay type: functional; details: for MIC: Escherichia coli, ATCC 25922
Pseudomonas aeruginosa = test: Antibacterial activity against Pseudomonas aeruginosa ATCC 27853 by disc diffusion method; assay type: functional; details: for MIC: Pseudomonas aeruginosa, ATCC 27853
Staphylococcus aureus = test: Antibacterial activity against Staphylococcus aureus ATCC 25923 by disc diffusion method; assay type: functional
Klebsiella pneumoniae = test: Antibacterial activity against Klebsiella pneumoniae by disc diffusion method; assay type: functional; details: for MIC: Klebsiella pneumoniae
Talaromyces marneffei = test: Antifungal activity against Penicillium marneffei by serial plate dilution method; assay type: functional; details: for MIC: Talaromyces marneffei
Aspergillus flavus = test: Antifungal activity against Aspergillus flavus NCIM 524 by serial plate dilution method; assay type: functional; details: for MIC: Aspergillus flavus, NCIM 524
Aspergillus fumigatus = test: Antifungal activity against Aspergillus fumigatus NCIM 902 by serial plate dilution method; assay type: functional; details: for MIC: Aspergillus fumigatus, NCIM 902
Trichophyton benhamiae = test: Antifungal activity against Trichophyton mentagrophytes by serial plate dilution method; assay type: functional, Arthroderma benhamiae; details: for MIC: Trichophyton benhamiae
Mus musculus [1] = test: Anticonvulsant activity in Swiss Albino mouse assessed as duration of seizure at 2 mg/kg, po by PTZ induced seizure test; assay type: functional
Mus musculus [2] = test: Anticonvulsant activity in Swiss Albino mouse assessed as duration of seizure at 50 mg/kg, po by PTZ induced seizure test; assay type: functional
Mus musculus [3] = test: Anticonvulsant activity in Swiss Albino mouse assessed as mortality at 50 mg/kg, po by PTZ induced seizure test; assay type: functional, organism-based; parameters: dose 50 mg/kg
[4] = Staphylococcus aureus, ATCC 25923, read-out: MIC

| Structure (SMILES) | inhibition zone (IZ) (Escherichia coli) | MIC (Escherichia coli) | inhibition zone (IZ) (Pseudomonas aeruginosa) | MIC (Pseudomonas aeruginosa) | inhibition zone (IZ) (Staphylococcus aureus) | MIC (Staphylococcus aureus; [4]) | inhibition zone (IZ) (Klebsiella pneumoniae) | MIC (Klebsiella pneumoniae) | inhibition zone (IZ) (Talaromyces marneffei) | MIC (Talaromyces marneffei) | inhibition zone (IZ) (Aspergillus flavus) | MIC (Aspergillus flavus) | inhibition zone (IZ) (Aspergillus fumigatus) | MIC (Aspergillus fumigatus) | inhibition zone (IZ) (Trichophyton benhamiae) | MIC (Trichophyton benhamiae) | Activity (Mus musculus [1]) | Activity (Mus musculus [2]) | Activity (Mus musculus [3]) | MIC (Staphylococcus aureus) |
| --- | --- | --- | --- | --- | --- | --- | --- | --- | --- | --- | --- | --- | --- | --- | --- | --- | --- | --- | --- | --- |
| O=c1c2c3c(sc2nc2sc(Cc4ccccc4)nn12)CCCC3 | 10 mm | 80 µg/mL (≈ 226 µM) | 10 mm | 80 µg/mL (≈ 226 µM) | 8 mm | > 100 µg/mL | 8 mm | > 100 µg/mL | 6 mm | > 100 µg/mL | 10 mm | 80 µg/mL (≈ 226 µM) | 6 mm | > 100 µg/mL | 6 mm | > 100 µg/mL | – | – | – | – |
| Nn1c(SCC(=O)c2ccc(O)c(O)c2)nc2sc3c(c2c1=O)CCCC3 | 10 mm | 80 µg/mL (≈ 198 µM) | 16 mm | 60 µg/mL (≈ 149 µM) | 16 mm | 60 µg/mL (≈ 149 µM) | 10 mm | 80 µg/mL (≈ 198 µM) | 6 mm | > 100 µg/mL | 6 mm | > 100 µg/mL | 8 mm | > 100 µg/mL | 8 mm | > 100 µg/mL | 62 s | 270 s | inactive | – |
| Nn1c(SCC(=O)c2ccc(Cl)cc2)nc2sc3c(c2c1=O)CCCC3 | 8 mm | > 100 µg/mL | 18 mm | 12.5 µg/mL (≈ 30.8 µM) | 8 mm | > 100 µg/mL | 6 mm | > 100 µg/mL | 6 mm | > 100 µg/mL | 6 mm | > 100 µg/mL | 8 mm | > 100 µg/mL | 8 mm | > 100 µg/mL | 400 s | 255 s | inactive | – |
| CN[C@@H]1[C@H](O[C@H]2[C@H](O[C@H]3[C@H](O)[C@@H](O)[C@H](N=C(N)N)[C@@H](O)[C@@H]3N=C(N)N)O[C@@H](C)[C@]2(O)C=O)O[C@@H](CO)[C@H](O)[C@H]1O (stereo in doubt) [STREPTOMYCIN] | 20 mm | < 6.25 µg/mL | 24 mm | < 6.25 µg/mL | 21 mm | – | 24 mm | < 6.25 µg/mL | – | – | – | – | – | – | – | – | – | – | – | <6.25 ug/sq.cm |
| OC(Cn1cncn1)(Cn1cncn1)c1ccc(F)cc1F [FLUCONAZOLE] | – | – | – | – | – | – | – | – | 21 mm | < 6.25 µg/mL | 18 mm | < 6.25 µg/mL | 21 mm | < 6.25 µg/mL | 19 mm | < 6.25 µg/mL | – | – | – | – |
| O=c1c2c3c(sc2nc2sc(-c4cc(Cl)cc(Cl)c4)nn12)CCCC3 | 8 mm | > 100 µg/mL | 8 mm | > 100 µg/mL | 8 mm | > 100 µg/mL | 6 mm | > 100 µg/mL | 5 mm | > 100 µg/mL | 6 mm | > 100 µg/mL | 5 mm | > 100 µg/mL | 6 mm | > 100 µg/mL | – | – | – | – |
| Nn1c(SCC(=O)c2ccnc(Cl)c2)nc2sc3c(c2c1=O)CCCC3 | 8 mm | > 100 µg/mL | 8 mm | > 100 µg/mL | 10 mm | 80 µg/mL (≈ 197 µM) | 10 mm | 80 µg/mL (≈ 197 µM) | 6 mm | > 100 µg/mL | 6 mm | > 100 µg/mL | 10 mm | 80 µg/mL (≈ 197 µM) | 8 mm | > 100 µg/mL | – | – | – | – |
| O=c1c2c3c(sc2nc2sc(CCl)nn12)CCCC3 | – | – | – | – | – | – | – | – | – | – | – | – | – | – | – | – | 70 s | 450 s | inactive | – |
